# How the values were obtained:
# Format in all cases: in vivo
# Conditions in all cases: 50 ppm, 100 = 100% disease control, 0 = no control
# [1] = test system: Septoria tritici; test: Test A: wheat leaf blotch, preventive spray on wheat seedlings
# Outline: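 Wheat seedlings sprayed to run-off with compound suspended in acetone/water with 250 ppm PEG400 surfactant, inoculated next day with Septoria tritici spores. Held 48 h saturated at 24 °C, then 17 days at 20 °C; disease rated 0–100% control relative to controls.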
# [2] = test system: Puccinia recondita f. sp. tritici; test: Test B: wheat leaf rust, preventive spray on wheat seedlings
# Outline: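 Wheat seedlings were sprayed to run-off with compound suspended at ppm concentrations in acetone/water containing 250 ppm PEG400. The next day they were inoculated with Puccinia recondita f. sp. tritici spores, held saturated at 20 °C for 24 h, then kept 7 days at 20 °C. Disease control was rated 0–100% relative to untreated controls.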
# [3] = test system: Blumeria graminis f. sp. tritici; test: Test C: wheat powdery mildew, preventive spray on wheat seedlings
# Outline: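 Seedlings were sprayed to run-off with compound suspended (ppm) in 50/50 acetone–water containing 250 ppm PEG400, then spore-dust inoculated the following day. After 8 days at 20° C, disease control was rated visually from 0 to 100 against controls.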
# [4] = test system: Phakopsora pachyrhizi; test: Test D: Asian soybean rust, preventive spray on soybean seedlings
# Outline: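 Compounds in acetone/water (50/50) with 250 ppm PEG400, dosed in ppm, sprayed to run-off on soybean seedlings; inoculated with P. pachyrhizi spores next day. Held 24 h at 22 °C in saturated air, then 8 days at 22 °C; visual rating of disease control, 0–100, relative to untreated controls.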
# [5] = test system: Botrytis cinerea; test: Test E: tomato Botrytis, preventive spray on tomato seedlings
# Outline: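 Compound suspended in 50/50 acetone/water with 250 ppm PEG400 surfactant and sprayed to run-off on tomato seedlings; Botrytis cinerea spores applied the next day. Incubation 48 h at 20° C in saturated atmosphere, then 3 days at 24° C. Visual rating 0–100% disease control relative to controls.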
# [6] = test system: Alternaria solani; test: Test F: tomato early blight, preventive spray on tomato seedlings
# Outline: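 Tomato seedlings were sprayed to run-off with compound suspended in acetone/water (50/50) with 250 ppm PEG400 and inoculated with Alternaria solani spores the next day. Plants were held 48 h at 27 °C in saturated humidity, then 3 days at 20 °C. Disease control was rated visually from 0 to 100 against untreated controls.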
compound,measurement,setting,value
COc1ccc(-c2c(C)nn(C)c2Nc2c(F)cccc2[N+](=O)[O-])c(C)c1 [compound 48],Test A disease control rating,[1],100%
same,Test B disease control rating,[2],95%
same,Test C disease control rating,[3],89%
same,Test D disease control rating,[4],0%
same,Test E disease control rating,[5],97%
same,Test F disease control rating,[6],97%
Cc1nn(C)c(Nc2c(Cl)cc(F)cc2[N+](=O)[O-])c1-c1c(F)cccc1Cl [compound 49],Test A disease control rating,[1],100%
same,Test B disease control rating,[2],100%
same,Test C disease control rating,[3],95%
same,Test D disease control rating,[4],25%
same,Test E disease control rating,[5],94%
same,Test F disease control rating,[6],26%
CCc1nn(C)c(Nc2c(F)cc(F)cc2[N+](=O)[O-])c1-c1ccc(F)cc1F [compound 50],Test A disease control rating,[1],100%
same,Test B disease control rating,[2],98%
same,Test C disease control rating,[3],100%
same,Test D disease control rating,[4],0%
same,Test E disease control rating,[5],92%
same,Test F disease control rating,[6],98%
Cc1nn(C)c(Nc2c(F)cc(F)cc2[N+](=O)[O-])c1-c1ccc(F)cc1Br [compound 51],Test A disease control rating,[1],100%
same,Test B disease control rating,[2],100%
same,Test C disease control rating,[3],100%
same,Test D disease control rating,[4],79%
same,Test E disease control rating,[5],98%
same,Test F disease control rating,[6],99%
COc1ccc(Nc2c(-c3ccc(F)cc3Br)c(C)nn2C)c([N+](=O)[O-])c1 [compound 52],Test A disease control rating,[1],100%
same,Test B disease control rating,[2],100%
same,Test C disease control rating,[3],90%
same,Test D disease control rating,[4],59%
same,Test E disease control rating,[5],99%
same,Test F disease control rating,[6],94%
Cc1nn(C)c(Nc2c(F)cccc2[N+](=O)[O-])c1-c1c(Cl)cccc1Cl [compound 53],Test A disease control rating,[1],100%
same,Test B disease control rating,[2],100%
same,Test C disease control rating,[3],98%
same,Test D disease control rating,[4],0%
same,Test E disease control rating,[5],98%
same,Test F disease control rating,[6],98%
Cc1nn(C)c(Nc2ccc(F)cc2[N+](=O)[O-])c1-c1c(Cl)cccc1Cl [compound 54],Test A disease control rating,[1],100%
same,Test B disease control rating,[2],91%
same,Test C disease control rating,[3],93%
same,Test D disease control rating,[4],0%
same,Test E disease control rating,[5],21%
same,Test F disease control rating,[6],0%
Cc1nn(C)c(Nc2c(Cl)cc(Br)cc2[N+](=O)[O-])c1-c1ccc(F)cc1F [compound 55],Test A disease control rating,[1],100%
same,Test B disease control rating,[2],99%
same,Test C disease control rating,[3],90%
same,Test D disease control rating,[4],0%
same,Test E disease control rating,[5],34%
same,Test F disease control rating,[6],0%
Cc1nn(C)c(Nc2c(F)cc(Br)cc2[N+](=O)[O-])c1-c1ccc(F)cc1F [compound 56],Test A disease control rating,[1],100%
same,Test B disease control rating,[2],100%
same,Test C disease control rating,[3],100%
same,Test D disease control rating,[4],65%
same,Test E disease control rating,[5],99%
same,Test F disease control rating,[6],99%
Cc1nn(C)c(Nc2c(F)cc(F)cc2[N+](=O)[O-])c1-c1ccc(F)cc1F [compound 58],Test A disease control rating,[1],100%
same,Test B disease control rating,[2],100%
same,Test C disease control rating,[3],99%
same,Test D disease control rating,[4],36%
same,Test E disease control rating,[5],99%
same,Test F disease control rating,[6],99%
Cc1nn(C)c(Nc2c(Cl)cc(Cl)cc2[N+](=O)[O-])c1-c1ccc(F)cc1Cl [compound 59],Test A disease control rating,[1],100%
same,Test B disease control rating,[2],100%
same,Test C disease control rating,[3],99%
same,Test D disease control rating,[4],96%
same,Test E disease control rating,[5],99%
same,Test F disease control rating,[6],92%
Cc1nn(C)c(Nc2c(F)cccc2[N+](=O)[O-])c1-c1c(F)cc(F)cc1F [compound 62],Test A disease control rating,[1],100%
same,Test B disease control rating,[2],100%
same,Test C disease control rating,[3],100%
same,Test D disease control rating,[4],100%
same,Test E disease control rating,[5],99%
same,Test F disease control rating,[6],99%
Cc1nn(C)c(Nc2c(F)cccc2[N+](=O)[O-])c1-c1c(F)cccc1F [compound 63],Test A disease control rating,[1],100%
same,Test B disease control rating,[2],99%
same,Test C disease control rating,[3],86%
same,Test D disease control rating,[4],0%
same,Test E disease control rating,[5],100%
same,Test F disease control rating,[6],96%
COc1ccc(-c2c(C)nn(C)c2Nc2c(F)cc(F)cc2[N+](=O)[O-])c(Cl)c1 [compound 64],Test A disease control rating,[1],100%
same,Test B disease control rating,[2],100%
same,Test C disease control rating,[3],98%
same,Test D disease control rating,[4],97%
same,Test E disease control rating,[5],98%
same,Test F disease control rating,[6],99%
COc1ccc(-c2c(C)nn(C)c2Nc2c(Cl)cc(Cl)cc2[N+](=O)[O-])c(Cl)c1 [compound 65],Test A disease control rating,[1],94%
same,Test B disease control rating,[2],89%
same,Test C disease control rating,[3],56%
same,Test D disease control rating,[4],66%
same,Test E disease control rating,[5],16%
same,Test F disease control rating,[6],46%
COc1ccc(-c2c(C)nn(C)c2Nc2c(Cl)cc(C)cc2[N+](=O)[O-])c(Cl)c1 [compound 66],Test A disease control rating,[1],100%
same,Test B disease control rating,[2],100%
same,Test C disease control rating,[3],98%
same,Test D disease control rating,[4],97%
same,Test E disease control rating,[5],98%
same,Test F disease control rating,[6],96%
Cc1nn(C)c(Nc2c(Cl)cc(F)cc2[N+](=O)[O-])c1-c1ccc(F)cc1F [compound 67],Test A disease control rating,[1],100%
same,Test B disease control rating,[2],100%
same,Test C disease control rating,[3],89%
same,Test D disease control rating,[4],69%
same,Test E disease control rating,[5],98%
same,Test F disease control rating,[6],33%
Cc1nn(C)c(Nc2c(F)cccc2[N+](=O)[O-])c1-c1ccc(Cl)cc1Cl [compound 69],Test A disease control rating,[1],100%
same,Test B disease control rating,[2],100%
same,Test C disease control rating,[3],97%
same,Test D disease control rating,[4],77%
same,Test E disease control rating,[5],100%
same,Test F disease control rating,[6],99%
